Here are results for 14 compounds from US10907197B2, “Probes for imaging huntingtin protein” (CHDI Foundation, Inc., priority 2014, dated 2021).

A value given as a limit tells only on which side of the number the result lay.

For one assay, the target named is T1, Q46 protein aggregates (Homo sapiens, UniProt P42858, INS38QQQQQQQQQQQQQQQQQQQQQQQQQ).
T1 construct: 33 μM GST-Q46 was incubated with 150 μg/mL thrombin in assay buffer (150 mM NaCl, 50 mM Tris pH 8.0) and 2 mM CaCl2 for 16 hr at 37° C; fused on or other part: GST at the N-terminus
Put plainly: Q46 Radioligand Binding Assay (RBA). The conditions noted are these: displacement of 10 nM [3H3]MK-3328 from 5 μM Q46 protein aggregates, 60 min at 37° C. The procedure:
Q46 Radioligand Binding Assay
For radioligand binding assays (RBA) GST-Q46 protein was generated based on a previous publication (Scherzinger et al. Cell, Vol. 90, 549-558, Aug. 8, 1997). For experiments 33 μM GST-Q46 was incubated with 150 μg/mL thrombin in assay buffer (150 mM NaCl, 50 mM Tris pH 8.0) and 2 mM CaCl2 for 16 hr at 37° C. Aggregated Q46 was pelleted by centrifugation for 5 min at 13,000 rpm in a bench top centrifuge and re-dissolved in the same volume of assay buffer. Test compounds were prepared by titration in DMSO at 11 concentrations from 33 μM to 1 nM. For the RBA, Q46 protein aggregates and test compounds were pre-incubated in assay buffer for 20 min at room temperature, in 140 μL/well in a 96-well plate (pp, round bottom). Then, ligand was added in 10 μL/well and incubated for 60 min at 37° C. Final assay concentrations were 1 μM to 30 pM test compound, 5 μM Q46 protein (equivalent monomer concentration) and 10 nM ligand [^3H3]MK-3328 (Harrision et al., ACS Med. Chem. Lett., 2 (2011), pp 498-502). Samples were transferred onto GF/B filter plates and washed 2× with 200 μL PBS using a Filtermate Harvester. After drying filter plates for 1 hr at 37° C., the back of the plates was sealed with foil and 30 μL/well scintillation fluid (Packard MicroScint 40) was added, incubated for incubated for 15 min in the dark and counted in a TopCount reader. […] IC50 values were determined with a sigmoidal inhibition model with four variables (top, bottom, slope, IC50) in a global fit using the normalized replicate data.

The test system of assay [1] is recombinant tau and amyloid β1-42 (Aβ1-42) aggregates. The conditions noted are these: higher affinity for the tau aggregates than Aβ1-42 aggregates; cited from earlier work.
For assay [2], the system named is NFT in sections of AD brain tissue. The conditions noted are these: cited from earlier work.

What is called IC50 is the point on the concentration scale where inhibition reaches its midpoint.

T1 sequence (P42858 with tags, fused parts or gaps with the stated changes): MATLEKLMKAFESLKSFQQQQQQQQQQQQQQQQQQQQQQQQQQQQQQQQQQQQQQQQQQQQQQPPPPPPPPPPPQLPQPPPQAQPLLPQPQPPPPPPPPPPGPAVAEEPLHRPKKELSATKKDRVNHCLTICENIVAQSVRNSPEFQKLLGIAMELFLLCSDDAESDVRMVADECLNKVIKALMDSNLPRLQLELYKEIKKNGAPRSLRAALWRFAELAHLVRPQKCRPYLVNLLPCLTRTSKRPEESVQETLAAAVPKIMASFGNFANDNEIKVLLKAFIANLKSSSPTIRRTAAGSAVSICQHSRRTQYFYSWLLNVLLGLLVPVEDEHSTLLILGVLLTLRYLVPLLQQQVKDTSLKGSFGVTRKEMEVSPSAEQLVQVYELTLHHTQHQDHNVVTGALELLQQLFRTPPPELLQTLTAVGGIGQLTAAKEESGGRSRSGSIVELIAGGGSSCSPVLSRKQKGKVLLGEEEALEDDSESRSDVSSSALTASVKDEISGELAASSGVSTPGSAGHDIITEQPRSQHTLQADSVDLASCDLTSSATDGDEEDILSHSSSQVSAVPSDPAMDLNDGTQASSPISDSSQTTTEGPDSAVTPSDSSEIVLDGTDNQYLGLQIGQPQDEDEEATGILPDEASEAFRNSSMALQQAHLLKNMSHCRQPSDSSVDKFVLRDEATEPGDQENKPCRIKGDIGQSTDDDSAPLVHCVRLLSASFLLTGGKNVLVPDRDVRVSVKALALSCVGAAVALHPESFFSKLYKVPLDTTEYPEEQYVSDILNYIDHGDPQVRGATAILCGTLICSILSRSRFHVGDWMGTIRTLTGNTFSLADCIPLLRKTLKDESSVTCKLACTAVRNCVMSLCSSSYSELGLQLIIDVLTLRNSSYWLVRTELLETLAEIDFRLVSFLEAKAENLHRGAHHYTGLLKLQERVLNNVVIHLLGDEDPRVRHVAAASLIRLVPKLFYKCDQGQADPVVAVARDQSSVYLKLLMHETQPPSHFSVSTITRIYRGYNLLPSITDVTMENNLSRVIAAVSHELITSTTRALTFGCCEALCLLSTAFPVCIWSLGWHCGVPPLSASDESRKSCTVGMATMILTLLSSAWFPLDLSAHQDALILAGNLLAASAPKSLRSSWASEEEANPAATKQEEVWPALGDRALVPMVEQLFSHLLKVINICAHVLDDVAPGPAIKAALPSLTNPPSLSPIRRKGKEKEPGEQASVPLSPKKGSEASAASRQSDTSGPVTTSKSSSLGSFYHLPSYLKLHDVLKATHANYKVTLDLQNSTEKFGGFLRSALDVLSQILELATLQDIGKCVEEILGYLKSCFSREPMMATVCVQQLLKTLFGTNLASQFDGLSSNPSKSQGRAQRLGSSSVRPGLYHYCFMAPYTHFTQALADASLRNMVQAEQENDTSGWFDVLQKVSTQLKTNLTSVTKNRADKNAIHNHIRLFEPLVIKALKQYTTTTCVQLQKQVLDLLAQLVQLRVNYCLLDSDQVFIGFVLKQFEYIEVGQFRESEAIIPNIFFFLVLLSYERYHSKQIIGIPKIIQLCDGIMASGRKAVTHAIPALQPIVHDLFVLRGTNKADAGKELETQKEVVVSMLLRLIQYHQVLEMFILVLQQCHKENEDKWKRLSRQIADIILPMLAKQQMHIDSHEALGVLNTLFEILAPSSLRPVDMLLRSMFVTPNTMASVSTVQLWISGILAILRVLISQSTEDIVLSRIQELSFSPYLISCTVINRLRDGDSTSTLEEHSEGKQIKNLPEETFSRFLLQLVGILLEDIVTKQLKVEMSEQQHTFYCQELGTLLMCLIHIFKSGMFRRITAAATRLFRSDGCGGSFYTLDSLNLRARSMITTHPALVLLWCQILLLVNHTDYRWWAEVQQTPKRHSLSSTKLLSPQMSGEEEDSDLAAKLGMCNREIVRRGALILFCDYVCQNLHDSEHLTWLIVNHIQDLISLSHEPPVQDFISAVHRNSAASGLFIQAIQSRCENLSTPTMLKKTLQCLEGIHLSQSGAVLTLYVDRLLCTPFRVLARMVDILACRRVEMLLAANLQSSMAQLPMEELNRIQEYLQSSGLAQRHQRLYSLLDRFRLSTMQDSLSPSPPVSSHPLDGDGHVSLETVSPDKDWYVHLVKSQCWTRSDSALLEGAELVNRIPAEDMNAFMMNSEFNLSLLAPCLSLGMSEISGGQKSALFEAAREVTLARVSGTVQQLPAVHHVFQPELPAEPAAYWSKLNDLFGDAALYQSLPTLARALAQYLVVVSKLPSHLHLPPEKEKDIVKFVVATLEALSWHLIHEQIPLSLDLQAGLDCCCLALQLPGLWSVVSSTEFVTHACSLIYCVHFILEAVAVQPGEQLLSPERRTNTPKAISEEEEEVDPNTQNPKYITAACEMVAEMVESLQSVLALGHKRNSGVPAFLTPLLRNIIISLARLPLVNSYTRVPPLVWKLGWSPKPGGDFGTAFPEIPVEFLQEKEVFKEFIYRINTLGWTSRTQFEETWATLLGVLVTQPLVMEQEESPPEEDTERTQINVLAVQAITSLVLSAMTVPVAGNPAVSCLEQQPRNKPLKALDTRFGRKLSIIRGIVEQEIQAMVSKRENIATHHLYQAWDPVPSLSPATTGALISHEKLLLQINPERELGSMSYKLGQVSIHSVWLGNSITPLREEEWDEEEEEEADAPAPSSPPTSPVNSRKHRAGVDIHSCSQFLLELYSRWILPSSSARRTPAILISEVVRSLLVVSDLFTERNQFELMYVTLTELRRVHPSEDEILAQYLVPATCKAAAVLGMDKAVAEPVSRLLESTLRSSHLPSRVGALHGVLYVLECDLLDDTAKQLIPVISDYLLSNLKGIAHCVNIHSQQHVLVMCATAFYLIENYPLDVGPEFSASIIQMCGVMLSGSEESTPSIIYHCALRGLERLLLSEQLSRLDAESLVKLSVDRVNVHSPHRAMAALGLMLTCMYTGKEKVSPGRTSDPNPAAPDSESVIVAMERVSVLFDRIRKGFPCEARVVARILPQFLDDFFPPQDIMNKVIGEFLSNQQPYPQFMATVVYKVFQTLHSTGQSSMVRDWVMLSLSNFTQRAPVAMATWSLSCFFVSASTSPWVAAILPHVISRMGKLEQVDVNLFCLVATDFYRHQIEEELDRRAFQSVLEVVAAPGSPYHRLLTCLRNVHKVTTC

In the case of `N#Cc1ccccc1-c1nc2cc3c(cc2o1)OCO3` [2-{4,6,10-trioxa-12-azatricyclo[7.3.0.0^3,^7]dodeca-1(9),2,7,11-tetraen-11-yl}benzonitrile], the IC50 on Q46 protein aggregates is less than 100 nM.

Compound `CN(CCO)c1ccc2oc(-c3ccncc3C#N)cc2c1` [4-{5-[(2-hydroxyethyl)(methyl)amino]-1-benzofuran-2-yl}pyridine-3-carbonitrile] had an IC50 at Q46 protein aggregates of less than 100 nM.

In the case of `COc1ccc2oc(-c3cccc4[nH]ncc34)cc2c1` [4-(5-methoxy-1-benzofuran-2-yl)-1H-indazole], the IC50 at Q46 protein aggregates is less than 100 nM.

At Q46 protein aggregates, `COc1ccc2cc(-c3ccncc3C#N)ccc2c1` [4-(6-methoxynaphthalen-2-yl)pyridine-3-carbonitrile] displayed an IC50 of 100 to 500 nM.

For the compound `N#CC1=C(c2cc3cc(O)ccc3o2)N2CCN=C2S1` [3-(5-hydroxy-1-benzofuran-2-yl)-5H,6H-imidazo[2,1-b][1,3]thiazole-2-carbonitrile], the 50% inhibitory concentration (IC50) on Q46 protein aggregates is less than 100 nM.

In the case of `CN(C)c1ccc(/C=C/c2nc3ccc(I)cc3[nH]2)cc1` [SBIM-3, 4-[(E)-2-(6-iodo-1H-benzimidazol-2-yl)ethenyl]-N,N-dimethylaniline], the “ratio of Kd values” in assay [1] was 2.73. Besides, the “binding to NFT” value in assay [2] was “bound NFT in sections of AD brain tissue”.

With `COc1ccc2oc(-c3ccncc3I)cc2c1` [3-iodo-4-(5-methoxy-1-benzofuran-2-yl)pyridine], at Q46 protein aggregates, the IC50 lay within 100 to 500 nM.

As for `COc1ccc2nc(-c3ccncc3C#N)[nH]c2c1` [4-(6-methoxy-1H-1,3-benzodiazol-2-yl)pyridine-3-carbonitrile], the concentration for half-maximal inhibition (IC50) on Q46 protein aggregates was more than 500 nM.

Turning to `COc1ccc2nc(-c3ccncc3NC(C)=O)sc2c1` [N-[4-(6-methoxy-1,3-benzothiazol-2-yl)pyridin-3-yl]acetamide], the half-inhibitory concentration (IC50) at Q46 protein aggregates was less than 100 nM.

Regarding `COc1ccc2oc(-c3ccncc3C)cc2c1` [4-(5-methoxy-1-benzofuran-2-yl)-3-methylpyridine], the IC50 on Q46 protein aggregates lay in the range of 100 to 500 nM.

`COc1ccc2nc(-c3ccncc3-c3ccn[nH]3)sc2c1` [6-methoxy-2-[3-(1H-pyrazol-5-yl)pyridin-4-yl]-1,3-benzothiazole] registered a concentration for half-maximal inhibition (IC50) at Q46 protein aggregates of 100 to 500 nM.

With `COc1ccc2oc(-c3ccncc3C#N)c(C)c2c1` [4-(5-methoxy-3-methyl-1-benzofuran-2-yl)pyridine-3-carbonitrile], the concentration for half-maximal inhibition (IC50) at Q46 protein aggregates was less than 100 nM.

`COc1ccc2nc(-c3ccccc3OC)sc2c1` [6-methoxy-2-(2-methoxyphenyl)-1,3-benzothiazole] showed an IC50 on Q46 protein aggregates of 100 to 500 nM.

On to `N#Cc1cnccc1-c1cc2cc(OCCO)ccc2o1` [4-[5-(2-hydroxyethoxy)-1-benzofuran-2-yl]pyridine-3-carbonitrile], for which the IC50 at Q46 protein aggregates lay within 100 to 500 nM.
